Laboratory results: US9089486B2, “Process for the preparation of a pharmaceutical composition comprising ezetimibe” (LEK PHARMACEUTICALS D.D., priority 2009, dated 2015)
Where two headings read alike, the source gives them in different places.

Tests used:
[1] = Particle size of ezetimibe by Malvern Mastersizer; format: physicochemical; settings: ezetimibe particles, lactose in the blend dissolved
Excerpt: After mixing of blend 2 in a high shear mixer, a good particle distribution could be reached. The size of the ezetimibe particles was not essentially changed.

[2] = cited from earlier work; for solubility in ethanol, methanol, and acetone: organic solvents
[3] = ambient temperature; cited from earlier work

Particle size d(0.1) [1]: 0.43 μm
Particle size d(0.5) [1]: 7.54 μm
Particle size d(0.9) [1]: 16.87 μm
SMILES: O=C1[C@H](CC[C@H](O)c2ccc(F)cc2)[C@@H](c2ccc(O)cc2)N1c1ccc(F)cc1 [Ezetimibe, ezetimibe]
solubility in ethanol, methanol, and acetone [2]: freely to very soluble
solubility in ethanol, methanol, and acetone ([2]; listed as ezetimibe): soluble
solubility in water [2]: practically insoluble
solubility in water ([2]; listed as ezetimibe): poorly soluble
stability [3]: stable
